Source: US20140378515A1, “IMMUNOSUPPRESSIVE COMPOUNDS” (priority 2013, published 2014)
Converted amounts (≈) assume the structure as drawn. Read-outs that look alike come from different tables or passages of the source.

Legend:
[1] = test system: ROS produced by human blood phagocytes; assay: Oxidative burst, luminol-enhanced chemiluminescence in whole blood; type: cell-based; settings: serum opsonized zymosan
Protocol: Formation of the reactive oxygen species (ROS) in whole blood, during the oxidative burst was measured by the luminol-enhanced chemiluminescence assay. In brief, three concentrations of each compound (1.0, 10 and 100 μg/mL) were prepared in 25 μL of Hank's Balanced salt solution containing calcium chloride and magnesium sulfate (HBSS^++) in a half area 96-well white flat-bottomed plate (Sigma Aldrich, Steinheim, Germany) in a final volume of 100 μL. Then 25 μL of whole blood diluted 1:50 in suspension of HBSS^++ was added.
Positive and negative controls and blank wells were included. Cells and compounds were incubated for 30 minutes at 37° C., then 25 μL luminol [3-aminophthalhydrazide] (Research Organics Cleveland, Ohio, USA), were added into each well followed by 25 μL of serum opsonized zymosan (Saccharomyces cerevisiae origin) purchased from Fluka, Buchs (Switzerland) was added except for negative and blank wells. The ROS chemiluminescence kinetic was monitored with a luminometer from Labsystems (Helsinki, Finland), for 50 minutes in the repeated scan mode. Peak and total integral chemiluminescence readings were expressed in the relative light unit.

[2] = test system: 3T3 NIH mouse embryo fibroblast cell line; assay: MTT cytotoxicity assay; settings: for Cytotoxicity IC50: 3T3 NIH cells, 48 h; for interference with the growth of 3T3 cells: up to 20 μg/mL
Protocol: (§1) The 3T3-NIH cells were suspended in Dulbecco's Modified Eagle's Medium (DMEM) formulated with 10% FBS. Using flat bottomed plates, cells were plated at a concentration of 6×10^4 cells/mL and incubated for 24 h at 37° C. and 5% CO2 environment. […] Following exposure to each compound, cell viability was assessed by using 0.5 mg/mL of MTT {3-(4,5-dimethylthiazol-2-yl)-2,5-diphenyltetrazolium bromide for 4 h followed by the removal of supernatant and addition of DMSO to solubilize the formazan complex. The plates were read at 540 nm after one minute shaking and readings were processed using MS Excel software. The results were expressed as means±SD of triplicate readings.

[3] = test system: NO produced by mouse macrophages J774.2 cell line; assay: Nitrite accumulation in LPS-stimulated J774.2 macrophages (Griess method); type: cell-based; settings: LPS-stimulated J774.2, 24 hours
Protocol: The mouse macrophage cell line J774.2 obtained from ECACC, Salisbury, Wiltshire (UK) was cultured in T75 flasks in complete DMEM containing 10% fetal bovine serum and supplemented with 1% streptomycin/penicillin. Flasks were kept at 37° C. in the atmosphere of humidified air containing 5% CO2. Cell were then seeded in 24 well (10^6 cells/mL) and nitric oxide synthase (NOS-2) in the macrophages was induced by addition of 20 μg/mL E. coli lipopolysaccharide (DIFCO Laboratories, Michigan, USA). The test compounds were added at a concentration of 25 μg/mL soon after LPS stimulation and incubated at 37° C. in 5% CO2. Cell culture supernatant was collected after 24 hours. Nitrite accumulation in J774.2 cell culture supernatant was measured using the Griess method, where 50 μL of 1% sulphanilamide in 2.5% phosphoric acid, followed by 50 μL of 0.1% naphtyl-ethylene diamine dihydrochloride in 2.5% phosphoric acid were added to 50 μL culture medium. After 10 minutes of incubation at room temperature the absorbance at 550 nm was read. Micromolar concentrations of nitrite were calculated from standard curve constructed with sodium nitrite a reference compound. The results were expressed as means±SD of duplicate readings.

[4] = test system: NO produced by mouse macrophages J774.2 cell line; assay: as above; type: cell-based
IL-4 production = IL-4 production by PHA stimulated PBMNCs (ELISA); type: cell-based, human; settings: 18 h
Protocol: The PBMNCs were cultured in a 96-well flat-bottomed plate (2.0×10^6 cell/mL) in the presence or absence of three concentrations of test compounds (1.0, 5.0, and 25 μg/mL), and phytohemagglutinin (PHA) in a final concentration of 7.5 μg/mL. After an incubation period of 18 h at 37° C. in 5% CO2, supernatant was collected for IL-4 determination. Interleukin-4 levels were measured by using enzyme-linked immunosorbent assay (ELISA) kit (Diaclone, France). The assay was performed according to the manufacturer's instructions. Briefly, in a 96-well ELISA plate which was coated with monoclonal mouse anti-human IL-4, 100 μl recombinant human IL-4 standards and culture supernatants samples were added. The plates were incubated for 2 hours at room temperature and washed three times with wash buffer, followed by the addition of biotinylated goat anti-human IL-4 and further incubated for 1 hour at room temperature. The plates were again washed and streptavidin conjugated horse raddish peroxidase was added and incubated for an additional 20 minutes at room temperature. After three final washes, the enzyme substrate solution was added and incubated for 12 to 15 minutes to allow color development at room temperature in the dark. Then stop solution was added and the plates were read at 450 nm in a plate reader (DIAReader GMBH, Wr. Neudorf, Austria). The results were analyzed using Microsoft Excel.

T-cell proliferation = T-cell proliferation assay (PHA-stimulated PBMNCs, 3H-thymidine incorporation); type: cell-based, human; design: unit not given here; settings: PHA 5 μg/mL stimulated PBMNCs
Protocol: The diluted blood was then layered onto lymphocyte separation medium (MP Biomedicals, Inc., Ohio, USA) and centrifuged at 400 g for 20 min at 25° C. […] Plates were then incubated at 37° C. in a humidified atmosphere of 5% CO2 in air for 72 hours. To each well, 0.5 μCi [methyl ^3H]-thymidine (Amersham Place Little Chalfont, Buckinghamshire, UK) was added for an additional 18 hours. Cells were harvested using a cell harvester (Inotech, Dottikon, Switzerland), and incorporation and level of radioactivity was measured by a liquid scintillation counter (Beckman coulter, LS 6500, Fullerton, Calif., USA).

IL-2 production = IL-2 production by PHA/PMA stimulated PBMCs (ELISA); type: cell-based, human; settings: experimental IL-2 IC50 listed in Table 3
Protocol: The PBMCs were cultured in a 96-well flat-bottomed plate (1.0×10^5 cell/well) in the presence or absence of three concentrations of test compounds (1.0, 5.0 and 20 μg/mL), and phytohemagglutinin (PHA) phorbol myristate acetate (PMA) in a final concentration of 5 ng/mL and 20 ng/mL, respectively. After an incubation period of 18 h at 37° C. in a humidified atmosphere of 5% CO2 in air, the supernatant was collected for IL-2 determination. Interleukin-2 levels were measured by using enzyme-linked immunosorbent assay (ELISA) development kit (R&D systems, Minneapolis, Minn., USA). The assay was performed according to the manufacturer's instructions. Briefly, a 96-well flat-bottomed ELISA plate was coated with 4.0 μg/mL mouse anti-human IL-2, in PBS, pH 7.4. Then, re-combinant human IL-2 standards and culture supernatant samples were added and incubated for 2 h followed by washing steps and then the addition of biotinylated goat anti-human IL-2. After an incubation period of 2 h at room temperature, the plates were again washed and streptavidin conjugated horse raddish peroxidase was added and incubated for additional 20 min at room temperature. After the final washes, an enzyme substrate solution of H2O2 and tetra methyl benzidine (1:1 v/v) was added and the color was allowed to develop at room temperature in the dark. The plates were then read at 450 nm in a plate reader (DIAReader GMBH, Wr. Neudorf, Austria). The results were analyzed using Microsoft Excel.

[5] = test system: 3T3 NIH mouse embryo fibroblast cell line
Protocol: as §1

| Structure (SMILES) | IC50 (μg/mL) for phagocytes ROS [1] [µg/mL] | Cytotoxicity IC50 [2] [µg/mL] | interference with the growth of 3T3 cells [2] | % of NO inhibited by 25 μg/mL of compound [3] [%] | IC50 NO production [4] [µg/mL] | IC50 IL-4 production (IL-4 production) [µg/mL] | IC50 T-cell proliferation (T-cell proliferation) | IC50 (IL-2 production) [µg/mL] | Cytotoxicity IC50 [5] [µg/mL] |
| --- | --- | --- | --- | --- | --- | --- | --- | --- | --- |
| Oc1ccc(O)c(-c2nc3ccccc3s2)c1 [Compound 8] | <1 | >20 | did not interfere with the growth of 3T3 cells | 91.1±0.7 | < 5 | 9.8 ± 0.6 (≈ 40.3 µM) | 1.1±0.1 | <1 |  |
| Oc1ccc(-c2nc3ccccc3s2)cc1 [Compound 4] | >100 | >25 | did not interfere with the growth of 3T3 cells | 56.1±0.6 | 7.9 ± 0.9 (≈ 34.8 µM) |  | 2.3±0.1 | 2.9 (≈ 12.8 µM) |  |
| COc1cccc(-c2nc3ccccc3s2)c1O [Compound 2] | 1.9 ± 0.6 |  |  | 28.9 ± 1.3 |  |  | 2.97±0.3 | <1 | >25 |
